# Reference: patent US20180200331A1, “BST-2 AS A THERAPEUTIC TARGET AND DIAGNOSTIC MARKER FOR BREAST CANCER GROWTH AND METASTASIS” (University of Iowa Research Foundation, priority 2015, published 2018)
# Read-outs that look alike come from different tables or passages of the source. No end group written: not given here.
# Experiments:
# [1] = system: BST-2; assay: 5-azacytidine treatment, BST-2 RT-qPCR and flow cytometry; format: cell-based, human; settings: 1 uM for 5 days
# Protocol: Cell lines of interest were plated at 150,000 cells/well in a 6-well plate and treated with DMSO (vehicle) or 1 μM of 5-azacytidine (5-azaC, Sigma Aldrich) for 5 days. Cells were harvested using 0.25% trypsin-EDTA (Mediatech, Corning, N.Y., USA). Post-incubation, 8 ml of 10% FBS-containing RPMI media (Life Technologies) was added and cells were centrifuged. Media was aspirated and individual cells were resuspended in 2% FBS-containing PBS (Life Technologies). Cell suspension was passed through a […] cell strainer (Falcon). Cells were incubated at 4° C. for 1 hour with APC-conjugated anti-BST-2 primary antibodies or appropriate IgG (Ebioscience) and washed with 1×PBS. After washing, cells were incubated with the fluorescent intercalator-7-aminoactinomycin D (7-AAD) (BioLegend) at 4° C. for 30 minutes to exclude dead cells. Stained cells were quantified using a FACS Calibur flow cytometer (BD). 10,000 events were collected per sample and FACS data were analyzed and plotted using Flowjo software (TreeStar).
# (§1) Human normal and breast cancer cell lines were plated at 150,000 cells/well in a 6-well plate and treated with DMSO (vehicle) or 1 μM of 5-azacytidine (5-azaC, Sigma Aldrich) for 5 days. Cells were lifted using Versene (a gentle cell dissociator, Life Technologies), washed with PBS, pelleted and stored at −20° C. until required for analysis. RNA was isolated from frozen cells using the RNeasy mini kit (Qiagen) according to manufacturer's instructions. Equivalent amounts of RNA were treated with DNase (Qiagen). A portion of RNA was subjected to cDNA synthesis (ABI) as previously described. RNA concentration and purity were assessed at 260/280 nm using the spectrophotometer. Using synthesized cDNA, sequence-specific primers were used to amplify BST-2 [4] and GAPDH [13,48]. Claudin-6 was amplified with (F: […], R: […]) primer pair. RT-qPCR was carried out with an ABI 7500 FAST thermal cycler in triplicates as previously described.
# [2] = system: Claudin-6 (CLDN6); assay: 5-azacytidine treatment, CLDN6 RT-qPCR; format: cell-based, human; settings: HMLE, MCF-7, SK-BR-3, MDA-MB-231 cells, 1 uM for 5 days
# Protocol: as §1
# [3] = Half-life of B49nc
# Description: We generated a truncated form of B49 called “B49nc” having the sequence […] (SEQ ID NO:14).
# [4] = system: MDA-MB-231 cells; assay: Cancer cell to cancer cell adhesion assay on MDA-MB-231 shControl monolayers; format: cell-based, human; settings: monolayers blocked with 200 ng/well for 4 hours; adhesion 4 hours
# Protocol: FIG. 46. […] Moreover, MDA-mb-231 SHcONTROL CELLS WERE ADDED TO mda-mb-231 ShBST-2 monolayers (on shBST-2). (Each data point corresponds to six different wells analyzed. Error bars correspond to SEM. Significance was taken at P<0.0005*** or P<0.0001****.
# MDA-MB-231 cells expressing shBST-2 or shControl were plated to confluency in a 96-well plate. MDA-MB-231 shControl cells were blocked with water (Vehicle), 200 ng/well of recombinant BST-2 (Sino Biological Inc.), 200 ng/well of B49 peptide or 200 ng of B49nc peptide for 4 hours. Wells were washed twice with PBS and then PKH67 labeled MDA-MB-231 shControl cells were added to wells at 25,000 cells/well. Cells were allowed to adhere for 4 hours at 37° C. Non-adhered cells were washed off with PBS and plates were read at 485 nm/535 nm (excitation/emission) wavelengths using a Tecan Infinite M200 Pro plate reader (Tecan). Values are represented as relative fluorescence intensity (RFI).
# [5] = system: Claudin-6 (CLDN6); settings: all cell types, GEO datasets; cited from earlier work
# [6] = system: BST-2; settings: cited from earlier work
# [7] = system: E0771 and 4T1 cells; assay: BrdU assay; format: cell-based, mouse
# Protocol: A total of 5,000 cells were plated in 96-well plates for 24 hours. Bromodeoxyuridine or 5-bromo-2′-deoxyuridine (BrdU) (Calbiochem, Billerica, Mass., USA) assay was carried out according to the manufacturer's instructions. Absorbance at 450 nm was read using a Tecan Infinite plate reader. In parallel, 150,000 cells were plated in 24-well plates for 24 hours. Cells were incubated with BrdU label (1:2000) for 20 hours, treated with a fixative/denaturing solution (30 minutes) and incubated with an anti-BrdU antibody (1:1000) and rat anti-mouse BST-2 antibody (1:200, eBioscience) for 1 hour at room temperature. Cells were washed and incubated with Alexa Fluor 594 anti-rat (Invitrogen, Waltham, Mass., USA) and Alexa Fluor 488 anti-mouse (Invitrogen) secondary antibodies for 30 minutes at room temperature. Cells were stained with 4′,6-diamidino-2-phenylindole (DAPI)-containing Vectashield (Vector Laboratories, Burlingame, Calif., USA) and imaged using a Zeiss 710 confocal microscope (Carl Zeiss, Oberkochen, Germany). Images were processed using Image J software. BrdU label, fixative/denaturing solution, and anti-BrdU antibody were from BrdU (Calbiochem) assay.
# [8] = system: E0771 cells; assay: Boyden chamber assay; format: cell-based, mouse; settings: 20 hours
# Protocol: The apical chamber of 24-well cell culture inserts (Merck Millipore, Billerica, Mass., USA) were seeded with previously starved sh137, sh413 or shControl transduced E0771 cells (150,000) in serum-free medium. Culture medium containing 30% FBS was added to the basal chamber of the unit and cells were allowed to migrate through the membranous barrier for 20 hours at 37° C. Non-migrated cells were washed off, migrated cells were fixed with 4% PFA for 5 minutes, washed twice with 1×PBS, permeabilized with 100% methanol for 25 minutes, labeled with Giemsa stain (for 15 minutes at room temperature) and imaged using a Nikon Eclipse Ti microscope adjusted with an X-cite series 120 LED fluorescence microscope light source and a Nikon digital sight camera. Images were processed using Image J software. Cells from five different fields were counted and averaged.
# [9] = system: mammary cancer cells; assay: Transformation assay (soft agar colony formation); format: cell-based, mouse; settings: compared to shControl
# Protocol: Agar was mixed in Roswell Park Memorial Institute medium (RPMI) with 20% FBS. A total of 500 μl of 0.5% agar was added to 24-well plate and allowed to solidify. Cells were plated at 1,250 cells/well in 500 μl of 0.35% agarose. Some 250 μl of the appropriate growth medium was added on top of the agarose layer. Growth medium was replaced twice a week. Colonies were stained with crystal violet and imaged. Colonies from five different fields were counted and averaged.
# [10] = system: BST-2; assay: shRNA knockdown of BST-2 in E0771 and 4T1 cells; format: cell-based, mouse; settings: E0771 and 4T1 cells stably transduced
# Description: E0771 and 4T1 cells were stably transduced with a construct expressing LV-CMV-firefly luciferase or an empty vector construct using lipofectamine following the manufacturer's instructions (Life Technologies, Carlsbad, Calif., USA). Stable transfectants were then transduced with lentiviral particles carrying BST-2-targeting sh137: CCGGC […] (SEQ ID NO:3); sh413: […] TTCTCAAGCTTTTTG (SEQ ID NO:4); or a non-targeting shControl: […] (SEQ ID NO:5) using a previously described protocol. Stable cells were generated by selection with the appropriate drug. The short hairpin RNA (shRNA) constructs were purchased from Sigma-Aldrich (St Louis, Mo., USA) (SHCLND-NM_198095) and lentiviral particles were generated at the Gene Transfer Vector Core at the University of Iowa.
# Cell monolayers were washed with PBS and treated with Versene (Life Technologies). […] Stained cells were quantified using a FACSCalibur flow cytometer (BD Biosciences, San Jose, Calif., USA). […] Fluorescence-activated cell sorting (FACS) data were analyzed by Flowjo software (TreeStar, Ashland, Oreg., USA). […]
# Western blots were performed as previously described. […] Band detection and quantification were carried out with the Odyssey Infrared Imaging System (LI-COR Biosciences, Lincoln, Nebr., USA).
# [11] = system: mammary cancer cells; assay: Scratch assay; format: cell-based, mouse; settings: 6 h and 24 h
# Protocol: Confluent monolayers of cancer cells plated in 12-well plates were scratched using a pipette tip. Fresh medium was added to the wells. Cells were allowed to migrate for 0, 6 or 24 hours before fixation (4% paraformaldehyde (PFA) for 45 minutes). Fixed cells were washed (1×PBS) and imaged with a Nikon Eclipse Ti microscope adjusted with a Nikon digital sight camera (Nikon, Tokyo, Japan). Images were processed and migrated cells counted using Image J software.
# [12] = system: E0771 cells; assay: MTT assay, E0771; format: cell-based, mouse
# Protocol: A total of 5,000 cells stably expressing sh137, sh413, or shControl were plated in 96-well plates. Cells were then incubated with 5 mg/ml MTT reagent for 3.5 hours followed by addition of MTT solvent (0.1% NP-40 and 4 mM HCl in isopropanol) and rocking for 15 minutes. Absorbance at 590 nm was read using a Tecan Infinite M200 Pro plate reader.
# [13] = system: E0771 or 4T1 cells; assay: Cell invasion assay (Matrigel); format: cell-based, mouse; settings: 24 h
# Protocol: The apical chamber of 24-well cell culture inserts (Merck Millipore) were coated with 3 mg/ml of Matrigel (100 μl) (Sigma-Aldrich) and allowed to solidify for 5 hours. A total of 100,000 sh413- or shControl-transduced E0771 or 4T1 cells in serum-free medium were plated on top of the Matrigel layer. Culture medium containing 10% FBS and 5 μg/ml fibronectin (adhesive substrate) (Sigma-Aldrich) was added to the basal chamber of the unit (600 μl) and cells were allowed to invade through the membranous barrier for 24 hours at 37° C. Noninvasive cells were washed off; invasive cells were fixed with 4% PFA, permeabilized with 100% methanol, labeled with Giemsa stain and imaged as described in the previous paragraph. Images were processed using Image J software. Cells from five different fields were counted and averaged.
compound,measurement,setting,value
"Nc1ncn([C@@H]2O[C@H](CO)[C@@H](O)[C@H]2O)c(=O)n1 [5-AzaC, 5-azacytidine]",BST-2 levels (RNA and protein),[1]; HMLE cells,significant increase
same,BST-2 levels (RNA and protein),[1]; MCF-7 cells,significant increase
same,BST-2 mRNA and protein levels,[1]; MDA-MB-231 cells,unchanged
same,BST-2 mRNA and protein levels,[1]; SK-BR-3 cells,unchanged
same,CLDN6 mRNA level,[2],induced in all cell types
TIKANSEACRDGLRAVMECRNVTHLLQQELTEAQKGFQDVEAQAATCNHTVMA (cysteines drawn unpaired) [B49nc],half-life,[3],~20 h
same,cancer cell adhesion (relative fluorescence intensity),[4],inhibits cancer cell adhesion
"Nc1ncn([C@H]2C[C@H](O)[C@@H](CO)O2)c(=O)n1 [DAC, 2′-deoxy-5-azacytidine]",CLDN6 mRNA levels,[5],induced in all cell types
same,BST-2 mRNA expression,"[6]; HB2 cells, GEO GSE28976",increased BST-2 mRNA expression
same,BST-2 mRNA expression,"[6]; MCF-7 cells, GEO GSE36683",increased BST-2 mRNA expression
same,BST-2 levels,"[6]; MDA-MB-231 cells, GEO GSE28976",did not show any increase
same,BST-2 levels,"[6]; SK-BR-3 cells, GEO GSE28976",did not show any increase
"sh137: BST-2-targeting shRNA (SEQ ID NO:3), delivered by lentiviral particles (CCGGCGCGATCTTGGTGGTCCTGTTCTCGAGAACAGGACCACCAAGATCGCGTTTTTG)",cell proliferation (BrdU incorporation),[7],no effect on cell proliferation
same,rate of cell migration (Boyden chamber),[8],significantly reduced rate of cell migration
same,colony numbers in soft agar,[9],reduced colony numbers
same,BST-2 expression,[10],reduced BST-2 expression
same,migration into scratch wound,[11],showed some migration
same,cell viability (MTT),[12],equally viable
same,invasion through Matrigel,[13],reduced the ability of the cells to invade the basement membrane
